# Where two headings read alike, the source gives them in different places.
# Key:
# Experiment in all cases: TGFα-shedding assay-based GPCR screening with chimeric Gα subunit proteins
# Assay type in all cases: cell-based
# [1] = target: T1, 348 GPCRs (Homo sapiens, UniProt O95136); conditions: 10µM, Favipiravir 100μM
# T1 construct: expressed in transfected cells; host or cells: HEK293A
# [2] = target: T2, 348 GPCRs (Homo sapiens, UniProt O14804); conditions: 10µM, Favipiravir 100μM
# T2 construct: expressed in transfected cells; host or cells: HEK293A
# T2 sequence (O14804 1-337): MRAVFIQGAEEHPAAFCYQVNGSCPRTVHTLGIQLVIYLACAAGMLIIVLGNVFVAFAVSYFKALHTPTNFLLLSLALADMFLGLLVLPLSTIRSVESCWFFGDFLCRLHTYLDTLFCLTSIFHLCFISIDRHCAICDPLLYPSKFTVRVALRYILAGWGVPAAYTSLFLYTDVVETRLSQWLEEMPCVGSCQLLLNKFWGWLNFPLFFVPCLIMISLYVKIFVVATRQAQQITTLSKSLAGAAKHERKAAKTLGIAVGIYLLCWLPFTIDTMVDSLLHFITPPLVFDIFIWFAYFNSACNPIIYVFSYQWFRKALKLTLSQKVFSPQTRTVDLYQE
# [3] = target: T3, 348 GPCRs (Homo sapiens, UniProt P51679); conditions: 10µM, Favipiravir 100μM
# T3 construct: expressed in transfected cells; host or cells: HEK293A
# T3 sequence (P51679 1-360): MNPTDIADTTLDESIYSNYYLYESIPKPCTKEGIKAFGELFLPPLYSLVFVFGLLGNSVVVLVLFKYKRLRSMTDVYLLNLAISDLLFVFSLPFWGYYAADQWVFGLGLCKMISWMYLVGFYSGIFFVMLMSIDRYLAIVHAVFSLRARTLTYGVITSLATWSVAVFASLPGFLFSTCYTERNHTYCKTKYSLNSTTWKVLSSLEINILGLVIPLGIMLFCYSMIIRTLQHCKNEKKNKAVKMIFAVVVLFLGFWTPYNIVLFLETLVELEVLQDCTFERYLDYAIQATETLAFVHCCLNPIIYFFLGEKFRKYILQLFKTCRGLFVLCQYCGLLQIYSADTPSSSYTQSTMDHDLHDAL
# [4] = target: T4, 348 GPCRs (Homo sapiens, UniProt P35348)
# T4 construct: expressed in transfected cells; host or cells: HEK293A
# T4 sequence (P35348 1-466): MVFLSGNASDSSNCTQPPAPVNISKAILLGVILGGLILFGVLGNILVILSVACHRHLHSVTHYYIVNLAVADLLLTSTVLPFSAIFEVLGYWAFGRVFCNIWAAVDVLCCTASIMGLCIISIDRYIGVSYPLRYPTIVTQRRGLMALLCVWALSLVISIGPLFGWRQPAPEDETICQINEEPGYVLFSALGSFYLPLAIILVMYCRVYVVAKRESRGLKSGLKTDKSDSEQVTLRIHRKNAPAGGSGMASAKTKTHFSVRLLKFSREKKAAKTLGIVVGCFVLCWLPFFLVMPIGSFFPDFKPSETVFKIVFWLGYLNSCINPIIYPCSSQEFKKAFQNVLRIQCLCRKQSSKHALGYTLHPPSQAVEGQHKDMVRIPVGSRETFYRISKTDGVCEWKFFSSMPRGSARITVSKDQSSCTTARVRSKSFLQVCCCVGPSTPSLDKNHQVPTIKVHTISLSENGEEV
# [5] = target: T5, 348 GPCRs (Homo sapiens, UniProt Q96P66)
# T5 construct: expressed in transfected cells; host or cells: HEK293A
# T5 sequence (Q96P66 1-508): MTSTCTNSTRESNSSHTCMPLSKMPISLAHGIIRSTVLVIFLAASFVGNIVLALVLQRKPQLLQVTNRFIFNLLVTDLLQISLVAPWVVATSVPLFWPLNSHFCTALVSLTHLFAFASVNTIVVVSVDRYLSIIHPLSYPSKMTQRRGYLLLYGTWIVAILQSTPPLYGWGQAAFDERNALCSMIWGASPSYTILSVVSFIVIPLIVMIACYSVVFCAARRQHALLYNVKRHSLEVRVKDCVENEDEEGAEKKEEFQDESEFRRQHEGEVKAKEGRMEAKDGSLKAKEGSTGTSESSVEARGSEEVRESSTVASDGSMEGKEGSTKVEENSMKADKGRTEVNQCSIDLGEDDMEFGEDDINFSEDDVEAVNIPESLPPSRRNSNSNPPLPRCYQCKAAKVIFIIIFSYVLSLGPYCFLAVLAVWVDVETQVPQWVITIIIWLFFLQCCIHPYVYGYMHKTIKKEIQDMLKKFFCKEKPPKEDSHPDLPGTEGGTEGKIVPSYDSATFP
# [6] = target: T6, 348 GPCRs (Homo sapiens, UniProt P50391); conditions: 10µM, Favipiravir 100μM
# T6 construct: expressed in transfected cells; host or cells: HEK293A
# T6 sequence (P50391 whole entry): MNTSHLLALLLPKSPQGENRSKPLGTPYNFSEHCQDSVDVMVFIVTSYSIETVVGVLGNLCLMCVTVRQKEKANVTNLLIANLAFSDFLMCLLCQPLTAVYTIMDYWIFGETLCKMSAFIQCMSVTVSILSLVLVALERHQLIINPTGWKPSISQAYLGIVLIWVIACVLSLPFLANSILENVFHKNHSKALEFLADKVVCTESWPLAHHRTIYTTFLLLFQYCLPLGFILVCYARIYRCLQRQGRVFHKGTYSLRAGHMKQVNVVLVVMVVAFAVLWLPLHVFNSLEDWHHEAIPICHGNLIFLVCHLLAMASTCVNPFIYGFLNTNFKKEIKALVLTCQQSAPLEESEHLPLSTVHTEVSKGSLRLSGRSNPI
# [7] = target: T7, 348 GPCRs (Homo sapiens, UniProt P25025)
# T7 sequence (P25025 1-360): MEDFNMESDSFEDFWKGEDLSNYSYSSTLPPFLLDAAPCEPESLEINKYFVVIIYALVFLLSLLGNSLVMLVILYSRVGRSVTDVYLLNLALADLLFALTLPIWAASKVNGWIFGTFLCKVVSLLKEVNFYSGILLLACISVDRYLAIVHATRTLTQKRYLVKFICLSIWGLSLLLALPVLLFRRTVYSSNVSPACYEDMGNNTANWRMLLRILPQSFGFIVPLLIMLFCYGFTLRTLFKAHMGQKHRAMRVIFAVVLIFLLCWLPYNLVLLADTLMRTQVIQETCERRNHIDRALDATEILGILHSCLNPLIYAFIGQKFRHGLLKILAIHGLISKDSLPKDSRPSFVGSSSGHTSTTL
# [8] = S1PR2 (sphingosine-1-phosphate receptor 2), read-out: % GPCR activation compared to TPA
# [9] = TAAR5 (trace amine associated receptor 5), read-out: % GPCR activation compared to TPA
# [10] = CCR4 (C-C motif chemokine receptor 4), read-out: % GPCR activation compared to TPA
# [11] = GPCR α1A (adrenoceptor alpha 1A), read-out: % GPCR activation compared to TPA
# [12] = GPCR GPR101 (G protein-coupled receptor 101), read-out: % GPCR activation compared to TPA
# [13] = NPY4R (neuropeptide Y receptor Y4), read-out: % GPCR activation compared to TPA
# [14] = GPCR CXCR2 (C-X-C motif chemokine receptor 2), read-out: % GPCR activation compared to TPA
# [15] = read-out: % GPCR activation compared to TPA, S1PR2 (sphingosine-1-phosphate receptor 2)
# [16] = read-out: % GPCR activation compared to TPA, TAAR5 (trace amine associated receptor 5)
# [17] = read-out: % GPCR activation compared to TPA, CCR4 (C-C motif chemokine receptor 4)
# [18] = read-out: % GPCR activation compared to TPA, GPCR α1A (adrenoceptor alpha 1A)
# [19] = read-out: % GPCR activation compared to TPA, GPCR GPR101 (G protein-coupled receptor 101)
# [20] = read-out: % GPCR activation compared to TPA, NPY4R (neuropeptide Y receptor Y4)
# [21] = read-out: % GPCR activation compared to TPA, GPCR CXCR2 (C-X-C motif chemokine receptor 2)
# T1 sequence (O95136 whole entry): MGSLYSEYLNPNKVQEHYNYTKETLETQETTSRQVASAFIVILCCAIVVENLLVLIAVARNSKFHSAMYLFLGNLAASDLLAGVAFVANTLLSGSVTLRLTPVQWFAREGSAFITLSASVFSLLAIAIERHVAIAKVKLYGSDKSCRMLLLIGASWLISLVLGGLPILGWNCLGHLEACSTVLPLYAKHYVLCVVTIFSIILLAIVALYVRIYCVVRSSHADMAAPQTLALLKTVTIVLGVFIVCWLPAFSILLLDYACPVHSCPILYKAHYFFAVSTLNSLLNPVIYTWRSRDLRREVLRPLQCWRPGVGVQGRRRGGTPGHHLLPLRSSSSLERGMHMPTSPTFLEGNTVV
SMILES,"activation at 10 µM [1, 8]","activation at 100 µM [2, 9]","activation at 100 µM [3, 10]","activation at 10 µM [4, 11]","activation at 10 µM [5, 12]","activation at 100 µM [6, 13]","activation at 10 µM [7, 14]","activation at 100 µM ([4]; GPCR α1A (adrenoceptor alpha 1A), 100μM, read-out: % GPCR activation compared to TPA)","activation at 100 µM ([5]; GPCR GPR101 (G protein-coupled receptor 101), 100μM, read-out: % GPCR activation compared to TPA)","activation at 100 µM ([7]; GPCR CXCR2 (C-X-C motif chemokine receptor 2), 100μM, read-out: % GPCR activation compared to TPA)","activation at 10 µM [1, 15]","activation at 100 µM [2, 16]","activation at 100 µM [3, 17]","activation at 10 µM [4, 18]","activation at 10 µM [5, 19]","activation at 100 µM [6, 20]","activation at 10 µM [7, 21]"
CC(C)C(=O)OC[C@H]1O[C@@H](n2ccc(NO)nc2=O)[C@H](O)[C@@H]1O [molnupiravir],-2.13%,-1.58%,1.67%,0.335%,-0.865%,-1.31%,0.926%,,,,,,,,,,
CCC(CC)COC(=O)[C@H](C)N[P@](=O)(OC[C@H]1O[C@@](C#N)(c2ccc3c(N)ncnn23)[C@H](O)[C@@H]1O)Oc1ccccc1 [remdesivir],,,,,,,,,,,-3.06%,0.868%,1.77%,0.479%,1.7%,-1.2%,2.41%
CC(C)OC(=O)[C@H](C)N[P@](=O)(OC[C@H]1O[C@@H](n2ccc(=O)[nH]c2=O)[C@](C)(F)[C@@H]1O)Oc1ccccc1 [sofosbuvir],,,,,,,,,,,0.199%,-2.96%,-2.38%,0.301%,-3.4%,-0.849%,-1.43%

# More lines, main results first:
"activation at 10 µM [1, 8]","activation at 100 µM [2, 9]","activation at 100 µM [3, 10]","activation at 10 µM [4, 11]","activation at 10 µM [5, 12]","activation at 100 µM [6, 13]","activation at 10 µM [7, 14]","activation at 100 µM ([4]; GPCR α1A (adrenoceptor alpha 1A), 100μM, read-out: % GPCR activation compared to TPA)","activation at 100 µM ([5]; GPCR GPR101 (G protein-coupled receptor 101), 100μM, read-out: % GPCR activation compared to TPA)","activation at 100 µM ([7]; GPCR CXCR2 (C-X-C motif chemokine receptor 2), 100μM, read-out: % GPCR activation compared to TPA)",SMILES,"activation at 10 µM [1, 15]","activation at 100 µM [2, 16]","activation at 100 µM [3, 17]","activation at 10 µM [4, 18]","activation at 10 µM [5, 19]","activation at 100 µM [6, 20]","activation at 10 µM [7, 21]"
-1.37%,0.608%,-0.385%,0.0114%,-0.779%,-1.48%,0.398%,,,,N#C[C@@]1(c2ccc3c(N)ncnn23)O[C@H](CO)[C@@H](O)[C@H]1O [GS441524],,,,,,,
-1.8%,-0.417%,0.85%,,,-2.23%,,0.574%,-0.717%,-0.272%,"NC(=O)c1nc(F)cnc1O [favipiravir, 6-fluoro-3-hydroxy-2-pyrazinecarboxamide]",,,,,,,
